PubChem BioAssay AID1963972 (Molecular Pharmacology Branch, DTP, NCI, 2024)

Test system: 945468-187-T-J2-PDC spheroids viability
Experiment: Anticancer human tumor 945468-187-T-J2-PDC patient-derived rectal carcinoma cell line growth inhibition [PI3K]
Conditions: spheroids with HUVEC and MSC; for IC50: curve of first compound; for viability, T/C: stronger effect = lower value
Procedure, shortened: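 Targeted small molecules plus PI3K inhibitors, half-log dose series from Cmax (default top 10 microM), were applied to heterotypic spheroids of cancer cells with HUVEC and MSCs. Viability indicated growth inhibition.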

[1] = second compound 0.00316 µM, first compound 0.0316 µM
[2] = second compound 0.00316 µM, first compound 0.1 µM
[3] = second compound 0.01 µM, first compound 0.0316 µM
[4] = second compound 0.01 µM, first compound 0.1 µM
[5] = second compound 0.0316 µM, first compound 0.0316 µM
[6] = second compound 0.0316 µM, first compound 0.1 µM
[7] = second compound 0.1 µM, first compound 0.0316 µM
[8] = second compound 0.1 µM, first compound 0.1 µM
[9] = second compound 0.316 µM, first compound 0.0316 µM
[10] = second compound 0.316 µM, first compound 0.1 µM
[11] = second compound 1 µM, first compound 0.0316 µM
[12] = second compound 1 µM, first compound 0.1 µM
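Note: spheroids exposed to compounds for seven days before reading.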

CC(C)n1nc(-c2ccc3oc(N)nc3c2)c2c(N)ncnc21 + COc1c(OCCCN2CCOCC2)ccc2c3n(c(=NC(=O)c4cnc(N)nc4)nc12)CCN3
IC50 (second compound 0.00316 µM): > 100 nM | IC50 (second compound 0.01 µM): > 100 nM | IC50 (second compound 0.0316 µM): 60.5 nM | IC50 (second compound 0.1 µM): 20.4 nM | IC50 (second compound 0.316 µM): < 0.316 nM | IC50 (second compound 1 µM): < 0.316 nM | viability, T/C (second compound 0.00316 µM, first compound 0.000316 µM): 82.4% | viability, T/C (second compound 0.00316 µM, first compound 0.001 µM): 83.8% | viability, T/C (second compound 0.00316 µM, first compound 0.00316 µM): 81.7% | viability, T/C (second compound 0.00316 µM, first compound 0.01 µM): 84.3% | viability, T/C [1]: 73.6% | viability, T/C [2]: 61.1% | viability, T/C (second compound 0.01 µM, first compound 0.000316 µM): 120% | viability, T/C (second compound 0.01 µM, first compound 0.001 µM): 109% | viability, T/C (second compound 0.01 µM, first compound 0.00316 µM): 80.7% | viability, T/C (second compound 0.01 µM, first compound 0.01 µM): 82.7% | viability, T/C [3]: 66.6% | viability, T/C [4]: 66.1% | viability, T/C (second compound 0.0316 µM, first compound 0.000316 µM): 77.1% | viability, T/C (second compound 0.0316 µM, first compound 0.001 µM): 85.8% | viability, T/C (second compound 0.0316 µM, first compound 0.00316 µM): 116% | viability, T/C (second compound 0.0316 µM, first compound 0.01 µM): 86% | viability, T/C [5]: 79.1% | viability, T/C [6]: 27.4% | viability, T/C (second compound 0.1 µM, first compound 0.000316 µM): 76.2% | viability, T/C (second compound 0.1 µM, first compound 0.001 µM): 76.2% | viability, T/C (second compound 0.1 µM, first compound 0.00316 µM): 61.5% | viability, T/C (second compound 0.1 µM, first compound 0.01 µM): 75.6% | viability, T/C [7]: 36.2% | viability, T/C [8]: 16.7% | viability, T/C (second compound 0.316 µM, first compound 0.000316 µM): 36.5% | viability, T/C (second compound 0.316 µM, first compound 0.001 µM): 31.8% | viability, T/C (second compound 0.316 µM, first compound 0.00316 µM): 26.5% | viability, T/C (second compound 0.316 µM, first compound 0.01 µM): 25.4% | viability, T/C [9]: 17.6% | viability, T/C [10]: 10.9% | viability, T/C (second compound 1 µM, first compound 0.000316 µM): 20.2% | viability, T/C (second compound 1 µM, first compound 0.001 µM): 22.1% | viability, T/C (second compound 1 µM, first compound 0.00316 µM): 17.7% | viability, T/C (second compound 1 µM, first compound 0.01 µM): 13.8% | viability, T/C [11]: 12.1% | viability, T/C [12]: 11.3%

CCCS(=O)(=O)Nc1ccc(F)c(C(=O)c2c[nH]c3ncc(-c4ccc(Cl)cc4)cc23)c1F + COc1c(OCCCN2CCOCC2)ccc2c3n(c(=NC(=O)c4cnc(N)nc4)nc12)CCN3
IC50 (second compound 0.00316 µM): 5780 nM | IC50 (second compound 0.01 µM): 6430 nM | IC50 (second compound 0.0316 µM): 5580 nM | IC50 (second compound 0.1 µM): 6050 nM | IC50 (second compound 0.316 µM): < 31.6 nM | IC50 (second compound 1 µM): < 31.6 nM | viability, T/C [1]: 95.3% | viability, T/C [2]: 106% | viability, T/C (second compound 0.00316 µM, first compound 0.316 µM): 111% | viability, T/C (second compound 0.00316 µM, first compound 1 µM): 116% | viability, T/C (second compound 0.00316 µM, first compound 3.16 µM): 89.2% | viability, T/C (second compound 0.00316 µM, first compound 10 µM): 14.6% | viability, T/C [3]: 109% | viability, T/C [4]: 82% | viability, T/C (second compound 0.01 µM, first compound 0.316 µM): 79.8% | viability, T/C (second compound 0.01 µM, first compound 1 µM): 92.5% | viability, T/C (second compound 0.01 µM, first compound 3.16 µM): 105% | viability, T/C (second compound 0.01 µM, first compound 10 µM): 22.9% | viability, T/C [5]: 100% | viability, T/C [6]: 91.4% | viability, T/C (second compound 0.0316 µM, first compound 0.316 µM): 90.2% | viability, T/C (second compound 0.0316 µM, first compound 1 µM): 103% | viability, T/C (second compound 0.0316 µM, first compound 3.16 µM): 75.2% | viability, T/C (second compound 0.0316 µM, first compound 10 µM): 24.2% | viability, T/C [7]: 73.1% | viability, T/C [8]: 90.5% | viability, T/C (second compound 0.1 µM, first compound 0.316 µM): 77.7% | viability, T/C (second compound 0.1 µM, first compound 1 µM): 77.6% | viability, T/C (second compound 0.1 µM, first compound 3.16 µM): 77.2% | viability, T/C (second compound 0.1 µM, first compound 10 µM): 29% | viability, T/C [9]: 38.7% | viability, T/C [10]: 37% | viability, T/C (second compound 0.316 µM, first compound 0.316 µM): 36.9% | viability, T/C (second compound 0.316 µM, first compound 1 µM): 34% | viability, T/C (second compound 0.316 µM, first compound 3.16 µM): 35.3% | viability, T/C (second compound 0.316 µM, first compound 10 µM): 21.5% | viability, T/C [11]: 21.4% | viability, T/C [12]: 22.6% | viability, T/C (second compound 1 µM, first compound 0.316 µM): 21.9% | viability, T/C (second compound 1 µM, first compound 1 µM): 19.5% | viability, T/C (second compound 1 µM, first compound 3.16 µM): 25.7% | viability, T/C (second compound 1 µM, first compound 10 µM): 15.6%
